Laboratory results reported in US20230146395A1, “Substituted Pyrimidines and Uses Thereof” (Verge Analytics, Inc., priority 2020, published 2023).

What was measured:
[1] = system: ALS patient (SOD1 A4V) iPSC derived motor neurons; assay: iPSC MN Survival assay (GFP imaging, six days, hazard ratio from Cox regression); assay type: cell-based; conditions: Homo sapiens, survival rescue, read-out: C9 iPSC MN Significant survival rescue EC50
[2] = biological target: T1, Full length human recombinant PIKFYVE (Homo sapiens, UniProt Q9Y2I7); assay: Inhibition of PIKfyve (microfluidic electrophoresis kinase assay, PI3P/PS substrate); assay type: biochemical; conditions: 12 concentrations
T1 construct: Full length human recombinant PIKFYVE; purchased Carna Biosciences (Kobe, Japan); host or cells: baculovirus expression system
Summary of the method: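 GST-tagged full-length human PIKFYVE (baculovirus; 2 nM) with fluorescent PI3P/PS (1 μM PI3P) and […] in pH 7.5 HEPES with Mg2+/Mn2+, 1% DMSO, 3 h at room temperature. PI(3,5)P product/substrate ratio read by microfluidic electrophoresis; 12-point % inhibition versus no-enzyme and DMSO controls.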

[3] = system: HEK 293T transfected with plasmids containing TDP-43 Q331K mutation; assay: HEK/TDP Survival assay (Cell-Titer-Glo, 48 hrs, maximal effect of rescue); assay type: cell-based; conditions: Homo sapiens, HEK 293T with TDP-43 Q331K, (n) in brackets
Protocol: HEK/TDP Survival assay: Immortalized human embryonic kidney 293T (HEK 293T) were transfected with plasmids containing TDP-43 Q331K mutation, resulting in an increase in cell death that is biologically relevant to ALS patients. Cell death is measured as reductions in the amount of ATP, an indicator of metabolically active cells, that is quantified by a luminescence Cell-Titer-Glo® (CTG) reagent. Compounds are evaluated in this model for changes in CTG compared to a no treatment group. Increased signal indicates improved survival (rescue) and decreased signal indicates decreased survival.
Cell rescue was measured in a 96-well format with eight different concentrations of the test compound over 48 hours (hrs) with 6 replicates. The Promega Cell-Titer-Glo® Luminescent Cell Viability Assay was used to quantify ATP, an indicator of metabolically active cells (see protocol: https://www.promega.com/-/media/files/resources/protocols/technical-manuals/101/celltiterglo-2-0-assay-protocol.pdf?la=en). The luminescence signal was detected using the PerkinElmer EnVision or Molecular Devices SpectraMax.
The effect of a compound at a given dose on cell viability was determined using a three step procedure. First, Hedge's g for the Cell Titer-Glo luminescence values using six untreated wells on every plate as a control was calculated. […] Finally, values from all compound-dose pairs were corrected for multiple hypothesis testing using the Empirical Bayes framework of Stephens, M. (False discovery rates: a new deal, Biostatistics, 18 [2], 2017, 275-294) yielding credible intervals for the measured effect and associated s values.
Briefly, this method computes a local false sign rate for each experiment. Analogous to the local false discovery rate of Efron, B. (Size, power and false discovery rates, Ann. Statist. 35 [4], 2007, 1351-1377) this value measures the confidence in the sign of each effect (rather than confidence in each effect being non-zero). The s values reported in the previous figures are the expected fraction of errors if estimating the sign of all effects with greater absolute local false sign rate, defined in analogy to the q value of Storey, JD (The positive false discovery rate: a Bayesian interpretation and the q-value, Ann. Statist. 31 [6] 2003, 2013-2035).
Drugs that yielded signed log s values greater than 3 were considered hits. This threshold was determined by a separate calibration experiment in which Cell Titer-Glo® was measured in blank plates consisting of untreated cells to assess the noise inherent in the assay. Data are presented as the maximal effect of rescue obtained from the dose-response curve.

T1 sequence (Q9Y2I7 whole entry): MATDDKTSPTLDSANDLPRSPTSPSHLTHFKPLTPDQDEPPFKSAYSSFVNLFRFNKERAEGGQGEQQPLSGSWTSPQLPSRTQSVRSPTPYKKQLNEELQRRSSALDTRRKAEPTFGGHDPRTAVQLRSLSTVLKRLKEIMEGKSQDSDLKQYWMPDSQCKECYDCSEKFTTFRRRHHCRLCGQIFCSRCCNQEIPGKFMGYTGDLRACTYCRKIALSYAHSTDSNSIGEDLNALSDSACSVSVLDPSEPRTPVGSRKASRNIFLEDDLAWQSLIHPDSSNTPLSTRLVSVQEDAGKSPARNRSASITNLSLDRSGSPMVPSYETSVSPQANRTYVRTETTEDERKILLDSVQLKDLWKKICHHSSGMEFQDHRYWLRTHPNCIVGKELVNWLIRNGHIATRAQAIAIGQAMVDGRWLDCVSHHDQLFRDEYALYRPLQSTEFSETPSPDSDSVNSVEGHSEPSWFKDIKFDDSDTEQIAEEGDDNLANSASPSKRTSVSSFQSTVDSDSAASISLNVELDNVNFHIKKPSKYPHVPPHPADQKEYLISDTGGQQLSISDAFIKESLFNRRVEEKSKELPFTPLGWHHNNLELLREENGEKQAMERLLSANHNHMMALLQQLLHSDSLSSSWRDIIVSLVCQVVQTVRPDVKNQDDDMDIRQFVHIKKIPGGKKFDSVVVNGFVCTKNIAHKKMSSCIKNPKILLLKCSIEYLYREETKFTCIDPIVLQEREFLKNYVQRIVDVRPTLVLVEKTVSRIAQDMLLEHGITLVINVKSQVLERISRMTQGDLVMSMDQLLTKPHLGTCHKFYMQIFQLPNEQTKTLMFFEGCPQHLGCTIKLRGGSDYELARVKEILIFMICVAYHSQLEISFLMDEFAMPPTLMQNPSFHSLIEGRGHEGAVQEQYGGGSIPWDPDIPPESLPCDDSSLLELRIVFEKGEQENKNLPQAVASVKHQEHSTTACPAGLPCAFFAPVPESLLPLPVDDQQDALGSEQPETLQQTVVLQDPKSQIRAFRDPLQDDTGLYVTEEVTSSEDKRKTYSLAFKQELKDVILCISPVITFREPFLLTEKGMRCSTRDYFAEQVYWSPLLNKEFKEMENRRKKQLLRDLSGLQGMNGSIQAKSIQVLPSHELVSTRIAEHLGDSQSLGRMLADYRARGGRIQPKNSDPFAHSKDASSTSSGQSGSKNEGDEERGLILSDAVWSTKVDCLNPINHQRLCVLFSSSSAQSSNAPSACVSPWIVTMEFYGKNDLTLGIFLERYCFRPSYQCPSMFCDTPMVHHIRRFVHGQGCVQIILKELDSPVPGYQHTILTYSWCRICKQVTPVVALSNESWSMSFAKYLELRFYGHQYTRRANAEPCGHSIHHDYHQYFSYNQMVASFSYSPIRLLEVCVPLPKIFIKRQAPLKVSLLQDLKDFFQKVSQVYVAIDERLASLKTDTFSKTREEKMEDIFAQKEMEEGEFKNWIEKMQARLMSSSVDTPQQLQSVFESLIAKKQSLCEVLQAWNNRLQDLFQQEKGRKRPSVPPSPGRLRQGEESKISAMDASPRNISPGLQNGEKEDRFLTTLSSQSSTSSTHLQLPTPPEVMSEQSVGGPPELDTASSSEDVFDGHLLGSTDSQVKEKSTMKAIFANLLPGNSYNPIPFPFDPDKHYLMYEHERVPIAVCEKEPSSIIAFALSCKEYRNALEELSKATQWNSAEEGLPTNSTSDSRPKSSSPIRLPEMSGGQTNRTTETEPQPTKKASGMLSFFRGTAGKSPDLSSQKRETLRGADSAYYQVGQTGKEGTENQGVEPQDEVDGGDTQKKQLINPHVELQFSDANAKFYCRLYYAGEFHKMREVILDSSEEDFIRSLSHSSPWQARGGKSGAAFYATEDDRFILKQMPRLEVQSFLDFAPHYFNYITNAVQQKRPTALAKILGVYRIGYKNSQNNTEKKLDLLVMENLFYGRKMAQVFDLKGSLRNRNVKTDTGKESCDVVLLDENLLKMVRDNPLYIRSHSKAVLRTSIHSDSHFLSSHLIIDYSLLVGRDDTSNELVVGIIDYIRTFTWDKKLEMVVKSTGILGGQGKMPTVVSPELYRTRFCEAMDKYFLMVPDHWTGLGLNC

| Structure (SMILES) | IC50 [2] | EC50 [1] | EC50 [3] |
| --- | --- | --- | --- |
| Cc1cccc(-c2cc(Nc3nc(N4CCOCC4)c4oc(-c5ccncc5)cc4n3)[nH]n2)c1 [Compound 3, 4-morpholino-N-[5-(m-tolyl)-1H-pyrazol-3-yl]-6-(4-pyridyl)furo[3,2-d]pyrimidin-2-amine, hydrogen chloride] | 0.8 nM | 3000 nM | 16 nM |
| CCNC(=O)c1cc2nc(Nc3cc(-c4ccccc4)[nH]n3)nc(N3CCOCC3)c2o1 [Compound 56, N-ethyl-4 morpholino-2-[(5-phenyl-1H-pyrazol-3-yl)amino]furo[3,2-d]pyrimidine-6-carboxamide, hydrogen chloride] | 2 nM | 1000 nM | 15 nM |
| Cc1cccc(-c2ccn(-c3nc(N4CCOCC4)c4oc(-c5ccccn5)cc4n3)n2)c1 [Compound 91, 4-morpholino-6-(pyridin-2-yl)-2-(3-(m-tolyl)-1H-pyrazol-1-yl)furo[3,2-d]pyrimidine] | 3.9 nM | 1000 nM | 24.5 nM |
| Cc1cccc(-c2cnn(-c3nc(N4CCOCC4)c4oc(C(=O)NCCCS(=O)(=O)N(C)C)cc4n3)c2)c1 [Compound 120, N-(3-(N,N-dimethylsulfamoyl)propyl)-4-morpholino-2-(4-(m-tolyl)-1H-pyrazol-1-yl)furo[3,2-d]pyrimidine-6-carboxamide] | 16.2 nM |  | 121 nM |
| Cc1cccc(-c2cnn(-c3nc(N4CCOCC4)c4oc(C(=O)NC5CCOCC5)cc4n3)c2)c1 [Compound 125, 4-morpholino-N-(tetrahydro-2H-pyran-4-yl)-2-(4-(m-tolyl)-1H-pyrazol-1-yl)furo[3,2-d]pyrimidine-6-carboxamide] | 0.9 nM |  | 26 nM |
| Cc1cccc(-c2cnn(-c3nc(N4CCOCC4)c4oc(C(=O)NC5CC5)c(C)c4n3)c2)c1 [Compound 127, N-cyclopropyl-7-methyl-4-morpholino-2-(4-(m-tolyl)-1H-pyrazol-1-yl)furo[3,2-d]pyrimidine-6-carboxamide] | 34 nM |  | 48 nM |
| Cc1cccc(-c2cnn(-c3nc(N4CCOCC4)c4oc(C(=O)NC5CCCN(C)CC5)cc4n3)c2)c1 (stereo not drawn) [Compound 129, N-(1-methylazepan-4-yl)-4-morpholino-2-(4-(m-tolyl)-1H-pyrazol-1-yl)furo[3,2-d]pyrimidine-6-carboxamide] | 11.8 nM |  | 9 nM |
| [2H]C1([2H])OC([2H])([2H])C([2H])([2H])N(c2nc(-n3cc(-c4cccc(C)c4)cn3)nc3cc(C(=O)NCC)oc23)C1([2H])[2H] [Compound 131, N-ethyl-4-morpholino(dg)-2-(4-(m-tolyl)-1H-pyrazol-1-yl)furo[3,2-d]pyrimidine-6-carboxamide] | 18 nM |  | 17 nM |
| [2H]C1([2H])OC([2H])([2H])C([2H])([2H])N(c2nc(-n3cc(-c4cccc(C)c4)cn3)nc3cc(-c4cccnc4)oc23)C1([2H])[2H] [Compound 132, 4-morpholino (dg)-6-(pyridin-3-yl)-2-(4-(m-tolyl)-1H-pyrazol-1-yl)furo[3,2-d]pyrimidine] | 39.9 nM |  | 15 nM |

Now from value to molecule, other results behind:

| IC50 [2] | Structure (SMILES) | EC50 [1] | EC50 [3] |
| --- | --- | --- | --- |
| 1.2 nM | Cc1cccc(-c2cnn(-c3nc(N4CCOCC4)c4oc(C(=O)NC5CC5)cc4n3)c2)c1 [Compound 100, N-cyclopropyl-4-morpholino-2-(4-(m-tolyl)-1H-pyrazol-1-yl)furo[3,2-d]pyrimidine-6-carboxamide] | 300 nM | 18 nM |
| 2.9 nM | CCNC(=O)c1cc2nc(-n3cc(-c4cccc(C)c4)cn3)nc(N3CCOCC3)c2o1 [Compound 101, N-ethyl-4-morpholino-2-(4-(m-tolyl)-1H-pyrazol-1-yl)furo[3,2-d]pyrimidine-6-carboxamide] | 1000 nM |  |
| 12.1 nM | Cc1cccc(-c2cnn(-c3nc(N4CCOCC4)c4oc(-c5cccnc5)cc4n3)c2)c1 [Compound 102, 4-morpholino-6-(pyridin-3-yl)-2-(4-(m-tolyl)-1H-pyrazol-1-yl)furo[3,2-d]pyrimidine] | 1000 nM | 43 nM |
| 11.2 nM | Cc1cccc(-c2cnn(-c3nc(N4CCOCC4)c4oc(-c5ccccn5)cc4n3)c2)c1 [Compound 103, 4-morpholino-6-(pyridin-2-yl)-2-(4-(m-tolyl)-1H-pyrazol-1-yl)fur[3,2-d]pyrimidine] | 1000 nM |  |
| 10.2 nM | Cc1cccc(-c2cnn(-c3nc(N4CCOCC4)c4oc(C(=O)NC5COC5)cc4n3)c2)c1 [Compound 106, 4-morpholino-N-(oxetan-3-yl)-2-(4-(m-tolyl)-1H-pyrazol-1-yl)furo[3,2-d]pyrimidine-6-carboxamide] | 1000 nM | 53.5 nM |
| 1.9 nM | Cc1cccc(-c2cnn(-c3nc(N4CCOCC4)c4oc(C(=O)NCC5COC5)cc4n3)c2)c1 [Compound 107, 4-morpholino-N-(oxetan-3-ylmethyl)-2-(4-(m-tolyl)-1H-pyrazol-1-yl)furo[3,2-d]pyrimidine-6-carboxamide] | 1000 nM | 59.5 nM |
| 1.2 nM | Cc1cccc(-c2cnn(-c3nc(N4CCOCC4)c4oc(C(=O)NC5CCN(C)CC5)cc4n3)c2)c1 [Compound 121, N-(1-methylpiperidin-4-yl)-4-morpholino-2-(4-(m-tolyl)-1H-pyrazol-1-yl)furo[3,2-d]pyrimidine-6-carboxamide] |  | 21.5 nM |
| 3.3 nM | Cc1cccc(-c2cnn(-c3nc(N4CCOCC4)c4oc(C(=O)NC5CCCN(C)C5)cc4n3)c2)c1 (stereo not drawn) [Compound 123, N-(1-methylpiperidin-3-yl)-4-morpholino-2-(4-(m-tolyl)-1H-pyrazol-1-yl)furo[3,2-d]pyrimidine-6-carboxamide] |  | 28.5 nM |
| 4.7 nM | Cc1cccc(-c2cnn(-c3nc(N4CCOCC4)c4oc(C(=O)NC5CCN(C)C5)cc4n3)c2)c1 (stereo not drawn) [Compound 124, N-(1-methylpyrrolidin-3-yl)-4-morpholino-2-(4-(m-tolyl)-1H-pyrazol-1-yl)furo[3,2-d]pyrimidine-6-carboxamide] |  | 48 nM |
| 2.9 nM | Cc1cccc(-c2cnn(-c3nc(N4CCOCC4)c4oc(C(=O)NC5CCOC5)cc4n3)c2)c1 (stereo not drawn) [Compound 126, 4-morpholino-N-(tetrahydrofuran-3-yl)-2-(4-(m-tolyl)-1H-pyrazol-1-yl)furo[3,2-d]pyrimidine-6-carboxamide] |  | 30.5 nM |
| 0.3 nM | Cc1cccc(-c2cnn(-c3nc(N4CCOCC4)c4oc(-c5cc(C)n[nH]5)cc4n3)c2)c1 [Compound 144, 6-(3-methyl-1H-pyrazol-5-yl)-4-morpholino-2-(4-(m-tolyl)-1H-pyrazol-1-yl)furo[3,2-d]pyrimidine] |  | 13 nM |
| 18.6 nM | Cc1cccc(-c2cnn(-c3nc(N4CCOCC4)c4oc(-c5cc(C)nn5CCN(C)C)cc4n3)c2)c1 [Compound 145, N,N-dimethyl-2-[3-methyl-5-[4-morpholino-2-[4-(m-tolyl)pyrazol-1-yl]furo[3,2-d]pyrimidin-6-yl]pyrazol-1-yl]ethanamine] |  | 27 nM |
| 0.3 nM | Cc1cccc(-c2cnn(-c3nc(N4CCOCC4)c4oc(-c5cc(C)n(CCN(C)C)n5)cc4n3)c2)c1 [Compound 146, N,N-dimethyl-2-(5-methyl-3-(4-morpholino-2-(4-(m-tolyl)-1H-pyrazol-1-yl)furo[3,2-d]pyrimidin-6-yl)-1H-pyrazol-1-yl)ethanamine] |  | 11 nM |
